{
  "source": "patent US20230248718A1",
  "about": "“PHARMACEUTICAL COMBINATION OF ANTISPASMODIC AND ANXIOLYTIC AGENT” (priority 2022, published 2023)",
  "key": {"[1]": {"protocol": "Therefore, drug-interaction studies were undertaken by the inventors and the samples were evaluated for chemical stability."}, "[2]": {"conditions": "cited from earlier work"}, "[3]": {"conditions": "oral, 80 mg strength IR tablets; cited from earlier work"}, "[4]": {"conditions": "cited from earlier work", "remark": "listed apart in the source"}},
  "note": "Where a name gives a salt, the structure may show the parent alone.",
  "data": [
    {"smiles": "CCOc1ccc(/C=C2\\NCCc3cc(OCC)c(OCC)cc32)cc1OCC", "note": "[Drotaverine HCl, Drotaverine hydrochloride]", "values": [
      {"measurement": "chemical stability / degradation in acidic environment", "setting": "[1]", "result": "best chemical stability"},
      {"measurement": "degradation in basic conditions", "setting": "[1]", "result": "degrades significantly"},
      {"measurement": "degradation in oxidative conditions / peroxide solution", "setting": "[1]", "result": "degrades significantly"}
    ]},
    {"smiles": "CCOc1ccc(/C=C2\\NCCc3cc(OCC)c(OCC)cc32)cc1OCC", "note": "[Drotaverine]", "values": [
      {"measurement": "oral LD50", "setting": "[2]", "result": "> 1000", "unit": "mg/Kg body weight"},
      {"measurement": "drug absorption from small intestine", "setting": "[3]", "result": "~90", "unit": "%"}
    ]},
    {"smiles": "CNC1=Nc2ccc(Cl)cc2C(c2ccccc2)=[N+]([O-])C1.Cl", "note": "[Chlordiazepoxide HCl, Chlordiazepoxide hydrochloride]", "values": [
      {"measurement": "plasma levels after administration is discontinued", "setting": "[4]; after discontinuation", "result": "decline slowly over a period of several days"},
      {"measurement": "half-life", "setting": "[4]; in vivo", "result": "24 to 48", "unit": "h"},
      {"measurement": "time for peak blood levels to be reached", "setting": "[4]; in vivo", "result": "several hours"}
    ]}
  ]
}
